Laboratory results reported in PubChem BioAssay (NCI).
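Cultured in 96-well plates, cells were exposed to test compound for 48 hours across five concentrations. The concentration for 50% growth inhibition is given as GI50. At the TGI there is no net growth.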 Where a SMILES comes first, the peptide text is derived from it. [ ]: non-standard residue; d: D form. The star is where a group is joined. Bn2Val = CC(C)[C@@H](C(=O)*)N(Cc1ccccc1)Cc1ccccc1; NHPiperonyl = c1cc2c(cc1CN*)OCO2; NMeV = CN[C@H](C(=O)O)C(C)C; dNMeA = CN[C@H](C)C(=O)O

Key:
Experiment in all cases: NCI tumour cell line growth inhibition, 48 h
[1] = system: UACC-62 melanoma
[2] = system: OVCAR-3 ovarian
[3] = system: SK-OV-3 ovarian
[4] = system: UO-31 renal
[5] = system: OVCAR-5 ovarian
[6] = system: HOP-62 NSCLC
[7] = system: MOLT-4 leukemia
[8] = system: U251 CNS
[9] = system: MDA-MB-435
[10] = system: SNB-75 CNS
[11] = system: UACC-257 melanoma
[12] = system: A549 NSCLC
[13] = system: SF-539 CNS
[14] = system: COLO 205 colon
[15] = system: HCT-15 colon
[16] = system: HCT-116 colon
[17] = system: LOX IMVI melanoma
[18] = system: RXF 393 renal
[19] = system: MALME-3M melanoma

SMILES | TGI [1] [µM] | TGI [2] [µM] | TGI [3] [µM] | TGI [4] [µM] | TGI [5] [µM] | TGI [6] [µM] | TGI [7] [µM] | TGI [8] [µM] | TGI [9] [µM] | TGI [10] [µM] | TGI [11] [µM] | TGI [12] [µM] | TGI [13] [µM] | TGI [14] [µM] | TGI [15] [µM] | TGI [16] [µM] | TGI [17] [µM] | TGI [18] [µM] | TGI [19] [µM] | GI50 [10] [µM]
Nc1cc(N2CCOCC2)nc(=O)n1-c1ccccc1 | > 100 | > 100 | > 100 | > 100 | > 100 | > 100 | > 100 | > 100 | > 100 | > 100 | > 100 | > 100 | > 100 | > 100 | > 100 | > 100 | > 100 | – | – | –
CC1OC1P(=O)(O)O (stereo not drawn) | > 100 | > 100 | > 100 | > 100 | > 100 | > 100 | > 100 | > 100 | > 100 | > 100 | > 100 | > 100 | – | > 100 | > 100 | > 100 | > 100 | > 100 | – | –
CC1(OCc2ccccc2)C(=O)N2C1N(C(=O)OCc1ccccc1)CC2(C)C (stereo not drawn) | > 100 | > 100 | – | > 100 | – | > 100 | 77.4 | > 100 | – | > 100 | > 100 | > 100 | > 100 | > 100 | > 100 | > 100 | > 100 | > 100 | > 100 | –
Cc1cccc(-c2cccc(COCc3cccc(-c4cccc(CO)n4)n3)n2)n1 | > 50 | > 50 | > 50 | > 50 | > 50 | > 50 | > 50 | > 50 | > 50 | > 50 | > 50 | > 50 | > 50 | > 50 | > 50 | > 50 | > 50 | – | – | –
CCOP(=O)(OCC)c1cc2cc(O)ccc2oc1=O | > 100 | > 100 | > 100 | 0.151 | > 100 | > 100 | – | > 100 | > 100 | > 100 | > 100 | > 100 | > 100 | > 100 | > 100 | > 100 | > 100 | > 100 | – | –
O=C1CSC(c2c[nH]c3ccccc23)N1c1cccc([N+](=O)[O-])c1 (stereo not drawn) | > 100 | > 100 | > 100 | > 100 | > 100 | > 100 | > 100 | > 100 | > 100 | > 100 | > 100 | > 100 | > 100 | > 100 | > 100 | > 100 | > 100 | > 100 | – | –
O=C(N/C(=C\NC1=NCCS1)C(=O)N1CSC[C@@H]1C(=O)O)c1ccccc1 | > 100 | > 100 | > 100 | > 100 | > 100 | > 100 | > 100 | > 100 | > 100 | > 100 | > 100 | > 100 | > 100 | > 100 | > 100 | > 100 | > 100 | > 100 | – | –
CC(C)NC1CCCCC2c3cc(F)ccc3[C@]12O (stereo partly drawn) | > 100 | > 100 | > 100 | > 100 | > 100 | > 100 | > 100 | > 100 | – | > 100 | > 100 | > 100 | > 100 | > 100 | > 100 | > 100 | > 100 | > 100 | > 100 | –
CC(=O)OC1COC(n2c(O)c(N=Nc3ccc([N+](=O)[O-])cc3)c3cc(Br)c([N+](=O)[O-])cc32)C(OC(C)=O)C1OC(C)=O (stereo not drawn) | 36.6 | > 100 | > 100 | – | > 100 | > 100 | > 100 | > 100 | – | – | > 100 | > 100 | > 100 | > 100 | > 100 | > 100 | > 100 | 89.8 | > 100 | –
CCOc1ccccc1NC(=O)CSc1nnc(Cc2ccccc2)o1 | 52.6 | 32.7 | > 100 | 52 | > 100 | > 100 | 71.3 | 41 | – | > 100 | 98.6 | > 100 | 53.5 | 36.5 | 35.1 | 84.5 | 40 | 55.3 | 33.8 | –
CC(C)[C@H](NC(=O)[C@H](C(C)C)N(Cc1ccccc1)Cc1ccccc1)C(=O)N(C)[C@H](C(=O)N1CCC[C@H]1C(=O)N(C)[C@H](C)C(=O)NCc1ccc2c(c1)OCO2)C(C)C (Bn2Val-V[NMeV]P[dNMeA]-NHPiperonyl) | > 74.2 | 57.9 | > 100 | > 100 | 23.9 | > 100 | > 100 | 43 | > 96.4 | – | > 100 | > 100 | 11.5 | – | > 100 | 23.2 | > 100 | – | > 65.3 | –
COc1ccc(OC)c2sc(N3C(=O)/C(=C/c4ccc(SC)cc4)N=C3c3ccccc3)nc12 | > 100 | 53.6 | > 100 | 63.7 | > 100 | 40 | 80.5 | 32.3 | 37.6 | 43.6 | > 100 | 53.9 | 58.7 | > 100 | > 100 | 41.3 | 64.4 | – | – | –
S=C(Nc1ccc(Cl)cc1)c1ccc(CN2CCCCC2)s1 | 21.7 | > 100 | – | 31.9 | 32.1 | – | 30.5 | > 100 | 67.6 | – | > 100 | > 100 | > 100 | 14.2 | > 100 | 25.5 | 6.14 | – | – | –
CN(C)CCNC(=O)c1ccccc1Nc1c(Cl)cccc1Cl | 31.4 | – | 26.8 | 17.2 | 22.2 | 27.2 | 29.2 | 23.9 | – | 9.52 | 18.5 | 25.3 | 26.7 | 25.8 | 27.9 | 20.6 | 25.8 | 10.8 | – | –
NC(CCCNc1ccc(O)cc1)C(=O)O (stereo not drawn) | 38.2 | 35 | > 100 | > 100 | > 100 | > 100 | 56.9 | > 100 | – | > 100 | > 70.5 | > 100 | 83.5 | > 90.3 | > 60.7 | 32.1 | 33.3 | 63.6 | > 100 | –
O=c1oc2cc(O)ccc2c(O)c1C(c1ccc2ccccc2c1)c1c(O)c2ccc(O)cc2oc1=O | > 100 | > 100 | > 100 | 31.7 | > 100 | > 100 | > 100 | > 100 | > 100 | 37.7 | > 100 | > 100 | > 100 | > 100 | > 100 | > 100 | > 100 | > 100 | – | –
COc1cccc([C@@H]2C/C(=N\NC(=O)C(=O)N[C@@H](C)c3ccccc3)c3cc4c(cc3N2)OCO4)c1 | > 100 | > 100 | > 100 | > 100 | > 100 | > 100 | > 100 | > 100 | 17.2 | > 100 | > 100 | > 100 | > 100 | 68.8 | > 100 | > 100 | > 100 | > 100 | – | –
CC(/C=C/c1ccccc1)=N\N=C(C)\C=C\c1ccccc1 | – | > 100 | > 100 | – | > 100 | > 100 | > 100 | > 100 | – | > 100 | > 100 | > 100 | – | – | > 100 | > 100 | > 100 | – | > 100 | –
COC(=O)C12OCC34C(CC5C(C)C6=CC(=O)OC6=CC5(C)C3C(O)C1O)OC(=O)C(OC(C)=O)C24 (stereo not drawn) | 21.9 | 29.4 | 79.4 | 46 | 44.2 | 53.2 | 45.6 | 57.8 | – | 42.1 | 30 | 49.9 | 34 | 22.6 | 42.5 | 37.2 | 37 | 29 | 21.9 | 14.7
CCN1C(=O)/C(=C\c2coc3ccccc3c2=O)SC1=S | > 100 | > 100 | > 100 | > 100 | > 100 | > 100 | > 100 | > 100 | – | > 100 | > 100 | > 100 | 90.1 | > 100 | > 100 | > 100 | > 100 | > 100 | > 100 | –
CCOC(=O)c1ccc(OCc2nc3cc(C(F)(F)F)ccc3nc2-c2ccccc2)cc1 | > 100 | > 100 | – | > 100 | > 100 | > 100 | > 100 | > 100 | > 100 | > 100 | > 100 | > 100 | > 100 | > 100 | > 100 | > 100 | > 100 | > 100 | – | –
COC1CC(=O)C2C(=O)N(c3ccccc3)C(=O)C23C(C(=O)c2ccccc2)=C(C)NC13O (stereo not drawn) | 31.3 | 8.12 | 54 | 40.9 | 54.5 | 41.9 | – | 35.5 | 40.9 | – | 56.2 | > 100 | 21.8 | 25.1 | 23.4 | 22.6 | 28.9 | – | 9.96 | –
Cc1ccc([N+]2=NC(c3ccc([N+](=O)[O-])cc3)=NN(c3ccccc3)C2)cc1 | – | > 100 | – | > 100 | > 100 | > 100 | > 100 | > 100 | – | – | > 100 | > 100 | – | > 100 | > 100 | > 100 | > 100 | > 100 | > 100 | –
CC(=O)Oc1c(C)cc2c(c1C)C(C)(C)CN2C(=O)C(C)(C)C | > 100 | > 100 | > 100 | > 100 | > 100 | > 100 | > 100 | > 100 | > 100 | 31 | > 100 | > 100 | > 100 | > 100 | > 100 | > 100 | > 100 | > 100 | – | –
O=P1(N(CCCl)CCCl)Oc2c(Cl)cc(Cl)c(Cl)c2Cc2c(Cl)c(Cl)cc(Cl)c2O1 | > 100 | > 100 | > 100 | > 100 | > 100 | > 100 | > 100 | > 100 | > 100 | > 100 | > 100 | > 100 | > 100 | 45.7 | > 100 | > 100 | > 100 | > 100 | – | –
COc1cc(C(=O)O)cc2c1[nH]c1ccccc12 | > 25 | > 25 | > 25 | > 25 | > 25 | > 25 | > 25 | > 25 | – | – | – | > 25 | > 25 | > 25 | > 25 | > 25 | > 25 | – | > 25 | –
COc1ccc2c(c1)CC[C@@H]1C2CC[C@]2(C)C(=N\O)/C(=N/O)CC12 (stereo partly drawn) | 26.6 | 26.8 | 32.6 | 26.5 | 25.8 | 26 | 21.1 | 28.7 | – | – | 32.9 | 24.7 | 35.1 | 31.6 | 26.2 | 29.5 | 6.11 | – | 32.5 | –
